Assay: Pharmacokinetic study (plasma total DTX)
Format: in vivo
Conditions: total DTX in plasma
Procedure: PEGMEMA-DTX conjugates having 50 kDa and 85 kDa molecular weight were subjected to pharmacokinetic testing and its pharmacokinetic profile was compared with that of free DTX.
Pharmacokinetic parameters for total DTX were calculated using the plasma total DTX concentration values of polymer drug conjugates and free DTX. Half-life, volume of distribution (VDβ), clearance (CL), and total area under the curve (AUC total) were calculated.
In order to provide similarity the HPMA-GFLG-DTX polymer was prepared without RGDfK targeting group.

AUC total: 10000 ± 3000 ng·h/mL
clearance (read-out: CL (clearance) (converted)): 2.34 mL/min
half-life (read-out: Half Life (β) (converted)): 3.12 ± 0.88 h
Vd (read-out: VDβ (volume of distribution)): 0.664 ± 0.258 L
SMILES: CC(=O)O[C@@]12CO[C@@H]1C[C@H](O)[C@@]1(C)C(=O)[C@H](O)C3=C(C)[C@@H](OC(=O)[C@H](O)[C@@H](NC(=O)OC(C)(C)C)c4ccccc4)C[C@@](O)([C@@H](OC(=O)c4ccccc4)[C@H]21)C3(C)C [Free DTX, Docetaxel]

Reference: US12673104B2, “Cleavable polymer drug conjugates” (RS ARASTIRMA EGITIM DANISMANLIK ILAC SANAYI TICARET ANONIM …, priority 2016, dated 2026)
